Assay results taken from patent publication US9328099B2, “Cyanomethylpyrazole carboxamides as janus kinase inhibitors” (Merck Sharp & Dohme Corp., priority 2011, dated 2016).
Like-named read-outs stand apart in the source and are kept apart here.

How the values were obtained:
JAK2 = JAK2 (Homo sapiens (Human), UniProt O60674); assay: Jak Biochemical HTRF Assay, JAK2; settings: HTRF biochemical assay, GST-tagged catalytic domain; top concentration tested […]
Source text: (§1) Jak Biochemical HTRF Assay Protocol
(§2) Subsequent reagent additions employed an Agilent Bravo.

JAK1 = JAK1 (Homo sapiens (Human), UniProt P23458); assay: Jak Biochemical HTRF Assay, JAK1
Source text: as §1, §2

[1] = HTRF biochemical assay, GST-tagged catalytic domain, top concentration tested […], read-out: JAK1 IC50

JAK1, sequence (P23458 875-1153): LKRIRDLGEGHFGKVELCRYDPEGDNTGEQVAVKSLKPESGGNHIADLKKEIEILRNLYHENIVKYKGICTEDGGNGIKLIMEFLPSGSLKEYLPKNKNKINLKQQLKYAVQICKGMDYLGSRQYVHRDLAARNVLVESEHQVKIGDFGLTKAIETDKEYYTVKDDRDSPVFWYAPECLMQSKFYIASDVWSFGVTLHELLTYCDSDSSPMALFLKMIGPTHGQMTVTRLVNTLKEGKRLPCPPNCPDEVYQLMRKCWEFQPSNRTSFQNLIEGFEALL
JAK2, sequence (O60674 849-1124): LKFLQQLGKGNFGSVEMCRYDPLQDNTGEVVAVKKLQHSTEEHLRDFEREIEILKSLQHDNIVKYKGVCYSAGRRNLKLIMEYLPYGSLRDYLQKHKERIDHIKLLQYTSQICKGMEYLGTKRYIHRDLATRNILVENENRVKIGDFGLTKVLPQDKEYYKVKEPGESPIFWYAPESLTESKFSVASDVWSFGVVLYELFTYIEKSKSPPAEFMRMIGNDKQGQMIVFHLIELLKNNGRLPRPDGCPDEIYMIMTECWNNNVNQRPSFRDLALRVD

Row | SMILES | IC50 (JAK2) [nM] | IC50 (JAK1; [1]) [nM] | IC50 (JAK1; JAK1 IC50) [nM]
1 | N#CCC1(n2cc(C(N)=O)c(Nc3ccc(F)cc3)n2)CCN(CCF)CC1 [Example 24-1, 1-(4-(Cyanomethyl)-1-(2-fluoroethyl)piperidin-4-yl)-3-((4-fluorophenyl)amino)-1H-pyrazole-4-carboxamide] | 59 | 10 | 
2 | C/C=C/C(=O)N1CCC(CC#N)(n2cc(C(N)=O)c(Nc3ccccc3)n2)CC1 [Example 33-2, 1-{1-[(2E)-but-2-enoyl]-4-(cyanomethyl)piperidin-4-yl}-3-(phenylamino)-1H-pyrazole-4-carboxamide] | 64 | 2 | 
3 | N#CCC1(n2cc(C(N)=O)c(Nc3ccc(F)cc3)n2)CCN(c2cc(F)ccn2)CC1 [Example 3-44, 1-[4-(cyanomethyl)-1-(4-fluoropyridin-2-yl)piperidin-4-yl]-3-[(4-fluorophenyl)amino]-1H-pyrazole-4-carboxamide] | 6 | 0.2 | 
4 | N#CCC1(n2cc(C(N)=O)c(Nc3ccc(F)cc3)n2)CCN(c2ccncc2)CC1 [Example 3-46, 1-[4-(cyanomethyl)-1-pyridin-4-ylpiperidin-4-yl]-3-[(4-fluorophenyl)amino]-1H-pyrazole-4-carboxamide] | 78 | 3 | 
5 | COC(=O)N1CCC(CC#N)(n2cc(C(N)=O)c(Nc3ccc(S(=O)(=O)C(F)(F)F)cc3)n2)CC1 [Example 27-1, Methyl 4-(4-carbamoyl-3-(4-(trifluoromethylsulfonyl)phenylamino)-1H-pyrazol-1-yl)-4-(cyanomethyl)piperidine-1-carboxylate] | 2 | 0.3 | 
6 | CC(C)(C)OC(=O)NC1CCC(CC#N)(n2cc(C(N)=O)c(Nc3ccccc3)n2)CC1 (single isomer, unassigned) [Example 2-19, (1s,3s or 1r,3r) tert-butyl {4-[4-carbamoyl-3-(phenylamino)-1H-pyrazol-1-yl]-4-(cyanomethyl)cyclohexyl}carbamate] | 267 | 12 | 
7 | N#CCC1(n2cc(C(N)=O)c(Nc3ccnc(F)c3)n2)CCC(NC2CCCCC2)CC1 (stereo not drawn) [Example 40-51, Cis or trans 1-[1-(cyanomethyl)-4-(cyclohexylamino)cyclohexyl]-3-[(2-fluoropyridin-4-yl)amino]-1H-pyrazole-4-carboxamide] | > 1500 | 598 | 
8 | COCC(C)OC(=O)N1CCC(CC#N)(n2cc(C(N)=O)c(Nc3ccc(F)cc3)n2)CC1 (centres unmarked) [Example 30-23, 1-methoxypropan-2-yl 4-{4-carbamoyl-3-[(4-fluorophenyl)amino]-1H-pyrazol-1-yl}-4-(cyanomethyl)piperidine-1-carboxylate] | 40 | 2 | 
9 | Cc1ccc(Cl)cc1NC(=O)N1CC(CC#N)(n2cc(C(N)=O)c(Nc3ccccc3)n2)C1 [Example 38-17, 1-{1-[(5-chloro-2-methylphenyl)carbamoyl]-3-(cyanomethyl)azetidin-3-yl}-3-(phenylamino)-1H-pyrazole-4-carboxamide] | 149 | 11 | 
10 | N#CCC1(n2cc(C(N)=O)c(Nc3ccc(F)cc3)n2)CCN(C(=O)OCC2CCOCC2)CC1 [Example 30-21, tetrahydro-2H-pyran-4-ylmethyl 4-{4-carbamoyl-3-[(4-fluorophenyl)amino]-1H-pyrazol-1-yl}-4-(cyanomethyl)piperidine-1-carboxylate] | 145 | 6 | 
11 | N#CCC1(n2cc(C(N)=O)c(Nc3ccnc(F)c3)n2)CCC(NCC(F)F)CC1 (stereo not drawn) [Example 40-106, Cis or trans 1-{1-(cyanomethyl)-4-[(2,2-difluoroethyl)amino]cyclohexyl}-3-[(2-fluoropyridin-4-yl)amino]-1H-pyrazole-4-carboxamide] | 31 |  | 4

Now from value to compound, other results behind:

Row | IC50 (JAK2) [nM] | IC50 (JAK1; [1]) [nM] | SMILES | IC50 (JAK1; JAK1 IC50) [nM]
12 | 247 | 95 | N#CCC1(n2cc(C(N)=O)c(Nc3ccccc3)n2)CN(S(=O)(=O)c2ccco2)C1 [Example 37-17, 1-[3-(cyanomethyl)-1-(furan-2-ylsulfonyl)azetidin-3-yl]-3-(phenylamino)-1H-pyrazole-4-carboxamide] | 
13 | 2 | 0.6 | N#CCC1(n2cc(C(N)=O)c(Nc3ccccc3)n2)CCN(S(=O)(=O)c2ccco2)CC1 [Example 37-4, 1-[4-(cyanomethyl)-1-(furan-2-ylsulfonyl)piperidin-4-yl]-3-(phenylamino)-1H-pyrazole-4-carboxamide] | 
14 | 128 | 7 | CC(=O)Nc1ccc(CN2CCC(CC#N)(n3cc(C(N)=O)c(Nc4ccccc4)n3)CC2)cc1 [Example 21-12, 1-{1-[4-(acetylamino)benzyl]-4-(cyanomethyl)piperidin-4-yl}-3-(phenylamino)-1H-pyrazole-4-carboxamide] | 
15 | 440 | 15 | N#CCC1(n2cc(C(N)=O)c(Nc3ccnc(F)c3)n2)CCC(NCc2ccc(Cl)cc2)CC1 (stereo not drawn) [Example 41-9, Cis or trans 1-{4-[(4-chlorobenzyl)amino]-1-(cyanomethyl)cyclohexyl}-3-[(2-fluoropyridin-4-yl)amino]-1H-pyrazole-4-carboxamide] | 
16 | 488 | 5 | N#CCC1(n2cc(C(N)=O)c(Nc3ccc(F)cc3)n2)CCN(c2ccnc3ccccc23)CC1 [Example 3-3, 1-[4-(cyanomethyl)-1-quinolin-4-ylpiperidin-4-yl]-3-[(4-fluorophenyl)amino]-1H-pyrazole-4-carboxamide] | 
17 | 355 | 14 | N#CCC1(n2cc(C(N)=O)c(Nc3ccnc(F)c3)n2)CCC(Nc2cc(F)ccc2F)CC1 (stereo not drawn) [Example 40-10, Cis or trans 1-{1-(cyanomethyl)-4-[(2,5-difluorophenyl)amino]cyclohexyl}-3-[(2-fluoropyridin-4-yl)amino]-1H-pyrazole-4-carboxamide] | 
18 | 350 | 28 | N#CCC1(n2cc(C(N)=O)c(Nc3ccccc3)n2)CCN(C(=O)c2cccc3ccccc23)CC1 [Example 34-25, 1-[4-(cyanomethyl)-1-(naphthalene-1-ylcarbonyl)piperidin-4-yl]-3-(phenylamino)-1H-pyrazole-4-carboxamide] | 
19 | 80 | 5 | CC(C)c1ccc(NC(=O)N2CC(CC#N)(n3cc(C(N)=O)c(Nc4ccccc4)n3)C2)cc1 [Example 38-7] | 
20 | 3 | 0.4 | N#CCC1(n2cc(C(N)=O)c(Nc3ccccc3)n2)CCN(S(=O)(=O)C2CC2)CC1 [Example 37-15, 1-[4-(cyanomethyl)-1-(cyclopropylsulfonyl)piperidin-4-yl]-3-(phenylamino)-1H-pyrazole-4-carboxamide] | 
21 | 7 | 0.6 | CC(C)(C)OC(=O)N1CC(CC#N)(n2cc(C(N)=O)c(Nc3ccc(S(C)(=O)=O)cc3)n2)C1 [Example 2-5, tert-butyl 3-(4-carbamoyl-3-{[4-(methylsulfonyl)phenyl]amino}-1H-pyrazol-1-yl)-3-(cyanomethyl)azetidine-1-carboxylate] | 
22 | 71 | 4 | COCCOC(=O)N1CCC(CC#N)(n2cc(C(N)=O)c(Nc3ccc(F)cc3)n2)CC1 [Example 30-48, 2-methoxyethyl 4-{4-carbamoyl-3-[(4-fluorophenyl)amino]-1H-pyrazol-1-yl}-4-(cyanomethyl)piperidine-1-carboxylate] | 
